The subject of the assay is pseudovirus of SARS-COV-2 variant Omicron (BA.1). The settings on record: pseudovirus of variant Omicron (BA.1).

Consider `CC[C@H](C)[C@H](NC(=O)CNC(=O)[C@H](CO)NC(=O)[C@@H](NC(=O)[C@H](CC(=O)O)NC(=O)CNC(=O)[C@H](Cc1ccccc1)NC(=O)[C@H](CCCCN)NC(=O)[C@@H](N)C(C)C)[C@@H](C)CC)C(=O)N[C@@H](CC(N)=O)C(=O)N[C@@H](C)C(=O)N[C@@H](CO)C(=O)N[C@H](C(=O)N[C@H](C(=O)N[C@@H](CC(N)=O)C(=O)N[C@H](C(=O)N[C@@H](CCCCN)C(=O)N[C@@H](CCC(=O)O)C(=O)N[C@@H](CCC(=O)O)C(=O)N[C@H](C(=O)N[C@@H](CC(=O)O)C(=O)N[C@@H](CCCNC(=N)N)C(=O)N[C@@H](CC(C)C)C(=O)N[C@@H](Cc1ccc(O)cc1)C(=O)N[C@@H](CCC(=O)O)C(=O)N[C@H](C(=O)N[C@H](C(=O)N[C@@H](CCCCN)C(=O)N[C@@H](CC(N)=O)C(=O)N[C@@H](CC(C)C)C(=O)N[C@@H](CC(N)=O)C(=O)N[C@@H](CCC(=O)O)C(=O)N[C@@H](CO)C(=O)N[C@@H](CC(C)C)C(=O)N[C@H](C(=O)N[C@@H](CC(=O)O)C(=O)N[C@@H](CC(C)C)C(=O)N[C@@H](CCC(N)=O)C(=O)N[C@@H](CCC(=O)O)C(=O)N[C@@H](CC(C)C)C(=O)O)[C@@H](C)CC)C(C)C)C(C)C)[C@@H](C)CC)[C@@H](C)CC)C(C)C)C(C)C` [P3-3], for which the EC50 (commonly the concentration that produces a half-maximal response) was 22700 nM. In the case of `CC[C@H](C)[C@H](NC(=O)CNC(=O)[C@H](CO)NC(=O)[C@@H](NC(=O)[C@H](CC(=O)O)NC(=O)CNC(=O)[C@H](Cc1ccccc1)NC(=O)[C@H](CCCCN)NC(=O)[C@@H](N)C(C)C)[C@@H](C)CC)C(=O)N[C@@H](CC(N)=O)C(=O)N[C@@H](C)C(=O)N[C@@H](CO)C(=O)N[C@H](C(=O)N[C@H](C(=O)N[C@@H](CC(N)=O)C(=O)N[C@H](C(=O)N[C@@H](CCCCN)C(=O)N[C@@H](CCC(=O)O)C(=O)N[C@@H](CCC(=O)O)C(=O)N[C@H](C(=O)N[C@@H](CC(=O)O)C(=O)N[C@@H](CCCNC(=N)N)C(=O)N[C@@H](CC(C)C)C(=O)N[C@@H](Cc1ccc(O)cc1)C(=O)N[C@@H](CCC(=O)O)C(=O)N[C@H](C(=O)N[C@H](C(=O)N[C@@H](CCCCN)C(=O)N[C@@H](CC(N)=O)C(=O)N[C@@H](CC(C)C)C(=O)N[C@@H](CC(N)=O)C(=O)N[C@@H](CCC(=O)O)C(=O)N[C@@H](CO)C(=O)N[C@@H](CC(C)C)C(=O)N[C@H](C(=O)N[C@@H](CC(=O)O)C(=O)N[C@@H](CC(C)C)C(=O)N[C@@H](CCC(N)=O)C(=O)N[C@@H](CCC(=O)O)C(=O)N[C@@H](CC(C)C)C(=O)N[C@@H](CSCC(=O)NCCOCCOCCOCCOCC(=O)O[C@H]1CC[C@@]2(C)C(=CC[C@H]3[C@@H]4CC[C@H]([C@H](C)CCCC(C)C)[C@@]4(C)CC[C@@H]32)C1)C(N)=O)[C@@H](C)CC)C(C)C)C(C)C)[C@@H](C)CC)[C@@H](C)CC)C(C)C)C(C)C` [P3-3-PEG-Chol], the EC50 is 571 nM. The compound `CC[C@H](C)[C@H](NC(=O)CNC(=O)[C@H](CO)NC(=O)[C@@H](NC(=O)[C@H](CC(=O)O)NC(=O)CNC(=O)[C@H](Cc1ccccc1)NC(=O)[C@H](CCCCN)NC(=O)[C@@H](N)C(C)C)[C@@H](C)CC)C(=O)N[C@@H](CC(N)=O)C(=O)N[C@@H](C)C(=O)N[C@@H](CO)C(=O)N[C@H](C(=O)N[C@H](C(=O)N[C@@H](CC(N)=O)C(=O)N[C@H](C(=O)N[C@@H](CCCCN)C(=O)N[C@@H](CCC(=O)O)C(=O)N[C@@H](CCC(=O)O)C(=O)N[C@H](C(=O)N[C@@H](CC(=O)O)C(=O)N[C@@H](CCCNC(=N)N)C(=O)N[C@@H](CC(C)C)C(=O)N[C@@H](Cc1ccc(O)cc1)C(=O)N[C@@H](CCC(=O)O)C(=O)N[C@H](C(=O)N[C@H](C(=O)N[C@@H](CCCCN)C(=O)N[C@@H](CC(N)=O)C(=O)N[C@@H](CC(C)C)C(=O)N[C@@H](CC(N)=O)C(=O)N[C@@H](CCC(=O)O)C(=O)N[C@@H](CO)C(=O)N[C@@H](CC(C)C)C(=O)N[C@H](C(=O)N[C@@H](CC(=O)O)C(=O)N[C@@H](CC(C)C)C(=O)N[C@@H](CCC(N)=O)C(=O)N[C@@H](CCC(=O)O)C(=O)N[C@@H](CC(C)C)C(=O)NCC(=O)N[C@@H](CO)C(=O)NCC(=O)N[C@@H](CO)C(=O)NCC(=O)N[C@@H](CSCC(=O)O[C@H]1CC[C@@]2(C)C(=CC[C@H]3[C@@H]4CC[C@H]([C@H](C)CCCC(C)C)[C@@]4(C)CC[C@@H]32)C1)C(N)=O)[C@@H](C)CC)C(C)C)C(C)C)[C@@H](C)CC)[C@@H](C)CC)C(C)C)C(C)C` [P3-3-GS-Chol] showed an EC50 of 1730 nM.

For the origin of these results see patent US20240398893A1, “ANTI-CORONAVIRUS POLYPEPTIDE AS WELL AS DERIVATIVE AND APPLICATION THEREOF” (priority 2021, published 2024).
